These compounds were tested against Melanocyte-stimulating hormone receptor (Rana pipiens) (assay: Inhibition of 1 nM alpha melanocortin stimulating hormone (MSH) from frog skin).

Row | IC50 | Compound
1 | 100 nM | C[C@@H](O)[C@H](NC(=O)[C@H]1NC(=O)[C@H]([C@@H](C)O)NC(=O)[C@H](CCCNC(=N)N)NC(=O)[C@@H](Cc2c[nH]c3ccccc23)NC(=O)[C@H](Cc2ccc(I)cc2)NC(=O)[C@@H](NC(=O)[C@H](N)Cc2ccccc2)CSSC1(C)C)C(N)=O [1N-(1-carbamoyl-2-hydroxypropyl)-15-[3-amino(imino)methylaminopropyl]-6-(1-amino-2-phenylethylcarboxamido)-18-(1-hydroxyethyl)-12-(1H-3-indolylmethyl)-9-(4-iodobenzyl)-2,2-dimethyl-7,10,13,16,19-pentaoxo-3,4-dithia-8,11,14,17,20-pentaazacycloicosane]
2 | 1000 nM | C[C@@H](O)[C@H](NC(=O)[C@H]1NC(=O)[C@H](CO)NC(=O)[C@H](CCCNC(=N)N)NC(=O)[C@@H](Cc2c[nH]c3ccccc23)NC(=O)[C@H](Cc2ccc(O)cc2)NC(=O)[C@@H](NC(=O)[C@H](N)Cc2ccccc2)CSSC1(C)C)C(N)=O [1N-(1-carbamoyl-2-hydroxypropyl)-15-[3-amino(imino)methylaminopropyl]-6-(1-amino-2-phenylethylcarboxamido)-9-(4-hydroxybenzyl)-18-hydroxymethyl-12-(1H-3-indolylmethyl)-2,2-dimethyl-7,10,13,16,19-pentaoxo-3,4-dithia-8,11,14,17,20-pentaazacycloicosane]
3 | 1000 nM | C[C@H](O)[C@@H](NC(=O)[C@H]1CSSC[C@H](NC(=O)[C@@H](N)Cc2ccccc2)C(=O)N[C@@H](Cc2c[nH]cn2)C(=O)N2Cc3ccccc3C[C@H]2C(=O)N[C@@H](CCCN=C(N)N)C(=O)N[C@H](Cc2c[nH]c3ccccc23)C(=O)N1)C(N)=O [(2R,3S)-2-{[(3S,6R,9S,14R,17S)-14-[(2S)-2-amino-3-phenylpropanamido]-3-{3-[(diaminomethylidene)amino]propyl}-17-(1H-imidazol-4-ylmethyl)-6-(1H-indol-3-ylmethyl)-1,4,7,15,18-pentaoxo-1H,2H,3H,4H,5H,6H,7H,8H,9H,10H,13H,14H,15H,16H,17H,18H,20H,25H,25aH-isoquinolino[3,2-m]1,2-dithia-5,8,11,14,17-pentaazacycloicosan-9-yl]formamido}-3-hydroxybutanamide]
4 | 1000 nM | C[C@@H](O)[C@H](NC(=O)[C@H]1NC(=O)[C@H](Cc2c[nH]c3ccccc23)NC(=O)[C@H](CCCN=C(N)N)NC(=O)[C@@H](Cc2c[nH]c3ccccc23)NC(=O)[C@H](Cc2ccccc2)NC(=O)[C@@H](NC(=O)[C@H](N)Cc2ccccc2)CSSC1(C)C)C(N)=O [1N-(1-carbamoyl-2-hydroxypropyl)-15-[3-amino(imino)methylaminopropyl]-6-(1-amino-2-phenylethylcarboxamido)-9-benzyl-12,18-di(1H-3-indolylmethyl)-2,2-dimethyl-7,10,13,16,19-pentaoxo-3,4-dithia-8,11,14,17,20-pentaazacycloicosane-1-carboxamide]
5 | 1000 nM | C[C@@H](O)[C@H](NC(=O)[C@H]1NC(=O)[C@H](Cc2c[nH]c3ccccc23)NC(=O)[C@H](CCCN=C(N)N)NC(=O)[C@@H](Cc2c[nH]c3ccccc23)NC(=O)[C@H](Cc2ccc(O)cc2)NC(=O)[C@@H](NC(=O)[C@H](N)Cc2ccccc2)CSSC1(C)C)C(N)=O [1N-(1-carbamoyl-2-hydroxypropyl)-15-[3-amino(imino)methylaminopropyl]-6-(1-amino-2-phenylethylcarboxamido)-9-(4-hydroxybenzyl)-12,18-di(1H-3-indolylmethyl)-2,2-dimethyl-7,10,13,16,19-pentaoxo-3,4-dithia-8,11,14,17,20-pentaazacycloicosane-1-carboxami]

Each compound was assayed against Melanocortin receptor 1 (Rana pipiens) (assay: Effective concentration required for maximum agonist response at melanocortin 1 receptor from frog skin.).

Row | Compound | EC50
6 | C[C@@H](O)[C@H](NC(=O)[C@@H]1CSSC[C@H](NC(=O)[C@H](N)Cc2ccccc2)C(=O)N[C@@H](Cc2cnc[nH]2)C(=O)N[C@@H](Cc2cccc3ccccc23)C(=O)N[C@@H](CCCNC(=N)N)C(=O)N[C@H](Cc2c[nH]c3ccccc23)C(=O)N1)C(N)=O [1N-(1-carbamoyl-2-hydroxypropyl)-15-[3-amino(imino)methylaminopropyl]-6-(1-amino-2-phenylethylcarboxamido)-9-(1H-5-imidazolylmethyl)-18-(1H-3-indolylmethyl)-12-(1-naphthylmethyl)-7,10,13,16,19-pentaoxo-3,4-dithia-8,11,14,17,20-pentaazacycloicosan] | 5000 nM
7 | C[C@@H](O)[C@H](NC(=O)[C@@H]1CCCCNC(=O)C[C@H](NC(=O)[C@H](N)Cc2ccccc2)C(=O)N[C@@H](Cc2cnc[nH]2)C(=O)N[C@H](Cc2ccccc2)C(=O)N[C@@H](CCCNC(=N)N)C(=O)N[C@@H](Cc2c[nH]c3ccccc23)C(=O)N1)C(N)=O [1N-(1-carbamoyl-2-hydroxypropyl)-7-[3-amino(imino)methylaminopropyl]-16-(1-amino-2-phenylethylcarboxamido)-10-benzyl-13-(1H-5-imidazolylmethyl)-4-(1H-3-indolylmethyl)-3,6,9,12,15,18-hexaoxo-2,5,8,11,14,19-hexaazacyclotricosane-1-carboxamide] | 0.1 nM

Continued, values first:

Row | EC50 | Compound
8 | 10 nM | C[C@@H](O)[C@H](NC(=O)[C@H]1CSSC[C@H](NC(=O)[C@H](N)Cc2ccccc2)C(=O)N[C@@H](Cc2cnc[nH]2)C(=O)N[C@@H](Cc2ccccc2)C(=O)N[C@@H](CCCNC(=N)N)C(=O)N[C@H](Cc2c[nH]c3ccccc23)C(=O)N1)C(N)=O [1N-(1-carbamoyl-2-hydroxypropyl)-15-[3-amino(imino)methylaminopropyl]-6-(1-amino-2-phenylethylcarboxamido)-12-benzyl-9-(1H-5-imidazolylmethyl)-18-(1H-3-indolylmethyl)-7,10,13,16,19-pentaoxo-3,4-dithia-8,11,14,17,20-pentaazacycloicosane-1-carboxam]
9 | 1000 nM | C[C@@H](O)[C@H](NC(=O)[C@@H]1CCSSC[C@H](NC(=O)[C@H](N)Cc2ccccc2)C(=O)N[C@@H](Cc2cnc[nH]2)C(=O)N[C@H](Cc2ccccc2)C(=O)N[C@@H](CCCNC(=N)N)C(=O)N[C@@H](Cc2c[nH]c3ccccc23)C(=O)N1)C(N)=O [1N-(1-carbamoyl-2-hydroxypropyl)-16-[3-amino(imino)methylaminopropyl]-7-(1-amino-2-phenylethylcarboxamido)-13-benzyl-10-(1H-5-imidazolylmethyl)-19-(1H-3-indolylmethyl)-8,11,14,17,20-pentaoxo-4,5-dithia-9,12,15,18,21-pentaazacyclohenicosane-1-carb]
10 | 3000 nM | C[C@@H](O)[C@H](NC(=O)[C@H]1CSSC[C@H](NC(=O)[C@@H](N)Cc2ccccc2)C(=O)N[C@@H](Cc2cnc[nH]2)C(=O)N[C@H](Cc2ccccc2)C(=O)N[C@@H](CCCNC(=N)N)C(=O)N[C@H](Cc2c[nH]c3ccccc23)C(=O)N1)C(N)=O [1N-(1-carbamoyl-2-hydroxypropyl)-15-[3-amino(imino)methylaminopropyl]-6-(1-amino-2-phenylethylcarboxamido)-12-benzyl-9-(1H-5-imidazolylmethyl)-18-(1H-3-indolylmethyl)-7,10,13,16,19-pentaoxo-3,4-dithia-8,11,14,17,20-pentaazacycloicosane-1-carboxam]
11 | 0.3 nM | C[C@@H](O)[C@H](NC(=O)[C@@H]1CSSCC[C@H](NC(=O)[C@H](N)Cc2ccccc2)C(=O)N[C@@H](Cc2cnc[nH]2)C(=O)N[C@H](Cc2ccccc2)C(=O)N[C@@H](CCCNC(=N)N)C(=O)N[C@@H](Cc2c[nH]c3ccccc23)C(=O)N1)C(N)=O [H-D-Phe-c[Hcy-His-D-Phe-Arg-Trp-Cys]-Thr-NH2]
12 | 30 nM | C[C@H](O)[C@@H](NC(=O)[C@H]1CSSC[C@H](NC(=O)[C@H](N)Cc2ccccc2)C(=O)N[C@@H](Cc2cnc[nH]2)C(=O)N[C@@H](Cc2ccc(Cl)cc2)C(=O)N[C@@H](CCCNC(=N)N)C(=O)N[C@H](Cc2c[nH]c3ccccc23)C(=O)N1)C(N)=O [1N-(1-carbamoyl-2-hydroxypropyl)-15-[3-amino(imino)methylaminopropyl]-6-(1-amino-2-phenylethylcarboxamido)-12-(4-chlorobenzyl)-9-(1H-5-imidazolylmethyl)-18-(1H-3-indolylmethyl)-7,10,13,16,19-pentaoxo-3,4-dithia-8,11,14,17,20-pentaazacycloicosane-]
13 | 1000 nM | C[C@@H](O)[C@H](NC(=O)[C@@H]1CSSC[C@H](NC(=O)[C@H](N)Cc2ccccc2)C(=O)N[C@@H](Cc2cnc[nH]2)C(=O)N[C@@H](Cc2ccc(F)cc2)C(=O)N[C@@H](CCCNC(=N)N)C(=O)N[C@H](Cc2c[nH]c3ccccc23)C(=O)N1)C(N)=O [1N-(1-carbamoyl-2-hydroxypropyl)-15-[3-amino(imino)methylaminopropyl]-6-(1-amino-2-phenylethylcarboxamido)-12-(4-fluorobenzyl)-9-(1H-5-imidazolylmethyl)-18-(1H-3-indolylmethyl)-7,10,13,16,19-pentaoxo-3,4-dithia-8,11,14,17,20-pentaazacycloicosane-]
14 | 100 nM | C[C@@H](O)[C@H](NC(=O)[C@H]1NC(=O)[C@H](Cc2c[nH]c3ccccc23)NC(=O)[C@H](CCCNC(=N)N)NC(=O)[C@@H](Cc2ccccc2)NC(=O)[C@H](Cc2cnc[nH]2)NC(=O)[C@@H](NC(=O)[C@H](N)Cc2ccccc2)CSSC1(C)C)C(N)=O [H-D-Phe-c[Cys-His-D-Phe-Arg-Trp-Pen]-Thr-NH2]
